Laboratory results from PubChem BioAssay AID248 (DTP/NCI, 2004).
“And” between values parts separate entries of the source, which are not always exact repeats. Equal values may be shown once. Inconclusive results and toxic doses are left out. Cut-off read from the data, not from the text of the source: active = T/C of 150% or more; inactive = T/C below 125%.

Tested on: L1210 leukemia ip in BDF1 mice, survival T/C
Test: NCI In Vivo Anticancer Drug Screen. Data for tumor model L1210 Leukemia (intraperitoneal) in B6D2F1 (BDF1) mice
Conditions: endpoint: mean survival time, higher = longer survival
Method in brief: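 Value reflects the ratio of survival in compound-treated mice to survival in vehicle-treated controls, with both groups carrying the same transplanted tumor.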

[1] = dose: 100.0 mg/kg/injection, schedule: Q01DX001 (ip), vehicle: saline
[2] = dose: 200.0 mg/kg/injection, schedule: Q01DX001 (ip), vehicle: saline
[3] = dose: 400.0 mg/kg/injection, schedule: Q01DX001 (ip), vehicle: saline
[4] = dose: 100.0 mg/kg/injection, schedule: Q04DX002 (ip), vehicle: saline
[5] = dose: 200.0 mg/kg/injection, schedule: Q04DX002 (ip), vehicle: saline
[6] = dose: 400.0 mg/kg/injection, schedule: Q04DX002 (ip), vehicle: saline
[7] = dose: 100.0 mg/kg/injection, schedule: Q04DX003 (ip), vehicle: Klucel (hydroxypropylcellulose) (HPC)
[8] = dose: 200.0 mg/kg/injection, schedule: Q04DX003 (ip), vehicle: Klucel (hydroxypropylcellulose) (HPC)
[9] = dose: 100.0 mg/kg/injection, schedule: Q04DX003 (ip), vehicle: saline with Tween-80
[10] = dose: 200.0 mg/kg/injection, schedule: Q04DX003 (ip), vehicle: saline with Tween-80
[11] = dose: 400.0 mg/kg/injection, schedule: Q04DX003 (ip), vehicle: saline with Tween-80
[12] = dose: 100.0 mg/kg/injection, schedule: Q01DX009 (ip), vehicle: Klucel (hydroxypropylcellulose) (HPC)
[13] = dose: 100.0 mg/kg/injection, schedule: Q04DX003 (ip), vehicle: saline
[14] = dose: 200.0 mg/kg/injection, schedule: Q04DX003 (ip), vehicle: saline
[15] = dose: 400.0 mg/kg/injection, schedule: Q04DX003 (ip), vehicle: saline
[16] = dose: 100.0 mg/kg/injection, schedule: Q04DX002 (ip), vehicle: Klucel (hydroxypropylcellulose) (HPC)
[17] = dose: 200.0 mg/kg/injection, schedule: Q04DX002 (ip), vehicle: Klucel (hydroxypropylcellulose) (HPC)
[18] = dose: 400.0 mg/kg/injection, schedule: Q04DX002 (ip), vehicle: Klucel (hydroxypropylcellulose) (HPC)
[19] = dose: 100.0 mg/kg/injection, schedule: Q01DX009 (ip), vehicle: saline
[20] = dose: 200.0 mg/kg/injection, schedule: Q01DX009 (ip), vehicle: saline
[21] = dose: 400.0 mg/kg/injection, schedule: Q04DX003 (ip), vehicle: Klucel (hydroxypropylcellulose) (HPC)

Measured: T/C

C=COC(=O)c1ccccc1 (tested in a mixture with another compound)
inactive: dose: 100.0 mg/kg/injection, schedule: Q01DX001 (ip), vehicle: other 97 % of control | [1] 110 % of control [middle of 4 runs] | dose: 200.0 mg/kg/injection, schedule: Q01DX001 (ip), vehicle: other 97 % of control | [2] 97 % of control and 105 % of control and 108 % of control | dose: 400.0 mg/kg/injection, schedule: Q01DX001 (ip), vehicle: other 86 % of control | [3] 101 % of control and 105 % of control and 108 % of control

COC(=O)C1C(=O)C(C(=O)OC)C(C)N(C)C1C (stereo unspecified)
inactive: dose: 9.38 mg/kg/injection, schedule: Q01DX001 (ip), vehicle: other 98 % of control | dose: 18.75 mg/kg/injection, schedule: Q01DX001 (ip), vehicle: other 104 % of control | dose: 37.5 mg/kg/injection, schedule: Q01DX001 (ip), vehicle: other 95 % of control

CC(CC(=O)c1ccc2ccccc2c1)C(=O)O (stereo unspecified)
inactive: dose: 75.0 mg/kg/injection, schedule: Q04DX003 (ip), vehicle: Klucel (hydroxypropylcellulose) (HPC) 97 % of control | dose: 150.0 mg/kg/injection, schedule: Q04DX003 (ip), vehicle: Klucel (hydroxypropylcellulose) (HPC) 92 % of control | dose: 300.0 mg/kg/injection, schedule: Q04DX003 (ip), vehicle: Klucel (hydroxypropylcellulose) (HPC) 107 % of control

CC(=O)C(C(C)=O)C(C)(C)C
inactive: dose: 50.0 mg/kg/injection, schedule: Q01DX001 (ip), vehicle: saline 95 % of control | [1] 97 % of control | [2] 90 % of control | [3] 95 % of control

NC(CS)C(=O)O (stereo unspecified) (tested in a mixture with another compound)
inactive: [1] 108 % of control | [2] 92 % of control | [3] 89 % of control

Nc1cc(S(=O)(=O)O)cc2cc(S(=O)(=O)O)cc(O)c12
inactive: dose: 50.0 mg/kg/injection, schedule: Q04DX002 (ip), vehicle: saline 92 % of control | [4] 100 % of control and 118 % of control | [5] 92 % of control | [6] 122 % of control and 92 % of control

COC(=O)C1CC2c3[nH]c4ccccc4c3CCN2C1 (stereo unspecified)
inactive: [7] 94 % of control | [8] 92 % of control

CC1Cc2ccccc2C1=O (stereo unspecified)
inactive: [9] 98 % of control | [10] 98 % of control | [11] 103 % of control

Nc1nc2ccc([N+](=O)[O-])cc2s1
inactive: dose: 50.0 mg/kg/injection, schedule: Q01DX009 (ip), vehicle: Klucel (hydroxypropylcellulose) (HPC) 105 % of control | [12] 104 % of control | [13] 97 % of control | [14] 101 % of control | [15] 86 % of control

O=C(Nc1ccccc1)OCCOc1ccc(Cl)cc1
inactive: [16] 88 % of control | [17] 95 % of control | [18] 95 % of control

N=C(N)c1ccc(OCCCCOc2ccc(NC(=O)c3cccc(S(=O)(=O)F)c3)cc2)cc1
inactive: dose: 50.0 mg/kg/injection, schedule: Q01DX001 (ip), vehicle: saline with Tween-80 98 % of control | dose: 100.0 mg/kg/injection, schedule: Q01DX001 (ip), vehicle: saline with Tween-80 95 % of control | dose: 200.0 mg/kg/injection, schedule: Q01DX001 (ip), vehicle: saline with Tween-80 97 % of control

NC(N)=NCCCCCC(=O)O
inactive: [19] 95 % of control | [13] 103 % of control | [20] 88 % of control | [14] 100 % of control | [15] 101 % of control

CC(C)NC(=O)C1C2C=CC(C2)C1C(=O)NC(C)C (stereo unspecified)
inactive: [9] 100 % of control | [10] 100 % of control | [11] 91 % of control

O=c1c2ccccc2ncn1C1OC(CO)C(O)C1O (stereo unspecified)
inactive: [1] 96 % of control | [2] 102 % of control | [3] 104 % of control

ONC(=Nc1ccccc1)c1ccccc1
inactive: [13] 104 % of control | [14] 101 % of control

CSC1C(OC(=O)c2ccccc2)C(COC(=O)c2ccccc2)OC1n1cnc2ncnc(NC(=O)c3ccccc3)c21 (stereo unspecified)
inactive: dose: 100.0 mg/kg/injection, schedule: Q01DX005 (ip), vehicle: saline 100 % of control | dose: 200.0 mg/kg/injection, schedule: Q01DX005 (ip), vehicle: saline 92 % of control

COC(=O)c1ccccc1Cn1ccnc1
inactive: [1] 108 % of control | [19] 102 % of control and 92 % of control | [4] 96 % of control and 103 % of control | [13] 115 % of control | [2] 101 % of control | [20] 94 % of control and 97 % of control | [5] 103 % of control and 105 % of control | [14] 101 % of control | [3] 97 % of control | [6] 100 % of control

Cc1nc(Cl)cc(Cl)n1
inactive: [7] 90 % of control | [8] 90 % of control | [21] 97 % of control

O=C1C=C(O/C=C/C(C(F)(F)F)C(F)(F)F)C(=O)c2ccccc21
inactive: dose: 6.25 mg/kg/injection, schedule: Q01DX001 (ip), vehicle: Klucel (hydroxypropylcellulose) (HPC) 100 % of control | dose: 6.25 mg/kg/injection, schedule: Q01DX009 (ip), vehicle: Klucel (hydroxypropylcellulose) (HPC) 91 % of control | dose: 12.5 mg/kg/injection, schedule: Q01DX001 (ip), vehicle: Klucel (hydroxypropylcellulose) (HPC) 101 % of control | dose: 12.5 mg/kg/injection, schedule: Q01DX009 (ip), vehicle: Klucel (hydroxypropylcellulose) (HPC) 95 % of control | dose: 25.0 mg/kg/injection, schedule: Q01DX001 (ip), vehicle: Klucel (hydroxypropylcellulose) (HPC) 103 % of control | dose: 50.0 mg/kg/injection, schedule: Q01DX001 (ip), vehicle: Klucel (hydroxypropylcellulose) (HPC) 101 % of control | dose: 75.0 mg/kg/injection, schedule: Q01DX001 (ip), vehicle: Klucel (hydroxypropylcellulose) (HPC) 96 % of control

CCOC(=O)c1cc2nc(C(C)C)n(Cc3ccccc3)c2cc(C(=O)OCC)c1=O
inactive: dose: 100.0 mg/kg/injection, schedule: Q01DX001 (ip), vehicle: Klucel (hydroxypropylcellulose) (HPC) 96 % of control | [12] 104 % of control and 89 % of control | [16] 98 % of control and 105 % of control | [7] 97 % of control | dose: 200.0 mg/kg/injection, schedule: Q01DX001 (ip), vehicle: Klucel (hydroxypropylcellulose) (HPC) 91 % of control | dose: 200.0 mg/kg/injection, schedule: Q01DX009 (ip), vehicle: Klucel (hydroxypropylcellulose) (HPC) 97 % of control and 89 % of control | [17] 96 % of control | [8] 100 % of control | dose: 400.0 mg/kg/injection, schedule: Q01DX001 (ip), vehicle: Klucel (hydroxypropylcellulose) (HPC) 100 % of control | dose: 400.0 mg/kg/injection, schedule: Q01DX009 (ip), vehicle: Klucel (hydroxypropylcellulose) (HPC) 98 % of control | [18] 88 % of control and 89 % of control | [21] 100 % of control
